Laboratory results from PubChem BioAssay (NCI).
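Protocol summary: plate cells (96-well), add compound at 5 concentrations, incubate 48 h, interpolate endpoints linearly. GI50 is the concentration that inhibits growth by half. TGI denotes the concentration required for complete inhibition of growth.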

How the values were obtained:
Assay in all cases: NCI anticancer screen, dose series, 48 h
786-0 renal = tested on: 786-0 renal
A498 renal = tested on: A498 renal
A549 NSCLC = tested on: A549 NSCLC
ACHN renal = tested on: ACHN renal
BT-549 breast = tested on: BT-549 breast
CAKI-1 renal = tested on: CAKI-1 renal
CCRF-CEM leukemia = tested on: CCRF-CEM leukemia
COLO 205 colon = tested on: COLO 205 colon
DU-145 prostate = tested on: DU-145 prostate
EKVX NSCLC = tested on: EKVX NSCLC
HCC-2998 colon = tested on: HCC-2998 colon
HCT-116 colon = tested on: HCT-116 colon
HCT-15 colon = tested on: HCT-15 colon
HL-60(TB) leukemia = tested on: HL-60(TB) leukemia
HOP-62 NSCLC = tested on: HOP-62 NSCLC
HOP-92 NSCLC = tested on: HOP-92 NSCLC
HS 578T breast = tested on: HS 578T breast
HT29 colon = tested on: HT29 colon
IGROV1 ovarian = tested on: IGROV1 ovarian
K-562 leukemia = tested on: K-562 leukemia
KM12 colon = tested on: KM12 colon
LOX IMVI melanoma = tested on: LOX IMVI melanoma
M14 melanoma = tested on: M14 melanoma
MALME-3M melanoma = tested on: MALME-3M melanoma
MCF7 breast = tested on: MCF7 breast
MDA-MB-231 breast = tested on: MDA-MB-231 breast
MDA-MB-435 = tested on: MDA-MB-435
MOLT-4 leukemia = tested on: MOLT-4 leukemia
NCI-H226 lung = tested on: NCI-H226 lung
NCI-H460 lung = tested on: NCI-H460 lung
NCI-H522 lung = tested on: NCI-H522 lung
NCI/ADR-RES ovarian = tested on: NCI/ADR-RES ovarian
OVCAR-3 ovarian = tested on: OVCAR-3 ovarian
OVCAR-4 ovarian = tested on: OVCAR-4 ovarian
OVCAR-5 ovarian = tested on: OVCAR-5 ovarian
OVCAR-8 ovarian = tested on: OVCAR-8 ovarian
PC-3 prostate = tested on: PC-3 prostate
RPMI-8226 leukemia = tested on: RPMI-8226 leukemia
RXF 393 renal = tested on: RXF 393 renal
SF-268 CNS = tested on: SF-268 CNS
SF-295 CNS = tested on: SF-295 CNS
SF-539 CNS = tested on: SF-539 CNS
SK-MEL-2 melanoma = tested on: SK-MEL-2 melanoma
SK-MEL-28 melanoma = tested on: SK-MEL-28 melanoma
SK-MEL-5 melanoma = tested on: SK-MEL-5 melanoma
SK-OV-3 ovarian = tested on: SK-OV-3 ovarian
SN12C renal = tested on: SN12C renal
SNB-19 CNS = tested on: SNB-19 CNS
SNB-75 CNS = tested on: SNB-75 CNS
SR leukemia = tested on: SR leukemia
SW-620 colon = tested on: SW-620 colon
T-47D breast = tested on: T-47D breast
TK-10 renal = tested on: TK-10 renal
U251 CNS = tested on: U251 CNS
UACC-257 melanoma = tested on: UACC-257 melanoma
UACC-62 melanoma = tested on: UACC-62 melanoma
UO-31 renal = tested on: UO-31 renal

SMILES: O=C(CN1CCOCC1)NNc1ncnc2ccccc12
- GI50 (786-0 renal): 2.23 µM
- TGI (786-0 renal): 5.17 µM
- GI50 (A498 renal): > 100 µM
- TGI (A498 renal): > 100 µM
- GI50 (A549 NSCLC): 17.4 µM
- TGI (A549 NSCLC): 34.7 µM
- GI50 (ACHN renal): 1.82 µM
- TGI (ACHN renal): 3.21 µM
- GI50 (BT-549 breast): 13.8 µM
- TGI (BT-549 breast): 28 µM
- GI50 (CAKI-1 renal): 2.76 µM
- GI50 (CCRF-CEM leukemia): 3.34 µM
- TGI (CCRF-CEM leukemia): 71 µM
- GI50 (COLO 205 colon): 2.42 µM
- TGI (COLO 205 colon): 5.37 µM
- GI50 (DU-145 prostate): 17.4 µM
- TGI (DU-145 prostate): 32.3 µM
- GI50 (EKVX NSCLC): 14.2 µM
- TGI (EKVX NSCLC): 28 µM
- GI50 (HCC-2998 colon): 16.9 µM
- TGI (HCC-2998 colon): 31.4 µM
- GI50 (HCT-116 colon): 3.14 µM
- TGI (HCT-116 colon): 12.3 µM
- GI50 (HCT-15 colon): 11.9 µM
- TGI (HCT-15 colon): 26.4 µM
- GI50 (HL-60(TB) leukemia): 5.17 µM
- TGI (HL-60(TB) leukemia): 26.2 µM
- GI50 (HOP-62 NSCLC): 17.9 µM
- TGI (HOP-62 NSCLC): 32.9 µM
- GI50 (HOP-92 NSCLC): 13.3 µM
- TGI (HOP-92 NSCLC): 27.1 µM
- GI50 (HS 578T breast): 20.6 µM
- TGI (HS 578T breast): 64.6 µM
- GI50 (HT29 colon): 15.6 µM
- TGI (HT29 colon): 33.7 µM
- GI50 (IGROV1 ovarian): 17 µM
- TGI (IGROV1 ovarian): 36.3 µM
- GI50 (K-562 leukemia): 3.18 µM
- TGI (K-562 leukemia): 12.9 µM
- GI50 (KM12 colon): 18.7 µM
- TGI (KM12 colon): 41.4 µM
- GI50 (LOX IMVI melanoma): 1.31 µM
- TGI (LOX IMVI melanoma): 11.2 µM
- GI50 (M14 melanoma): 10.1 µM
- TGI (M14 melanoma): 25.2 µM
- GI50 (MALME-3M melanoma): 1.74 µM
- TGI (MALME-3M melanoma): 3.52 µM
- GI50 (MCF7 breast): 4.33 µM
- TGI (MCF7 breast): 21.9 µM
- GI50 (MDA-MB-231 breast): 14.4 µM
- TGI (MDA-MB-231 breast): 29.6 µM
- GI50 (MDA-MB-435): 13.7 µM
- TGI (MDA-MB-435): 27 µM
- GI50 (MOLT-4 leukemia): 15.6 µM
- TGI (MOLT-4 leukemia): 56.9 µM
- GI50 (NCI-H226 lung): 15.8 µM
- TGI (NCI-H226 lung): 39.7 µM
- GI50 (NCI-H460 lung): 19.1 µM
- TGI (NCI-H460 lung): 38.9 µM
- GI50 (NCI-H522 lung): 1.41 µM
- TGI (NCI-H522 lung): 2.92 µM
- GI50 (NCI/ADR-RES ovarian): 20.6 µM
- TGI (NCI/ADR-RES ovarian): 50.2 µM
- GI50 (OVCAR-3 ovarian): 3.78 µM
- TGI (OVCAR-3 ovarian): 14.1 µM
- GI50 (OVCAR-4 ovarian): 1.83 µM
- TGI (OVCAR-4 ovarian): 3.85 µM
- GI50 (OVCAR-5 ovarian): 12.9 µM
- TGI (OVCAR-5 ovarian): 25.9 µM
- GI50 (OVCAR-8 ovarian): 17.1 µM
- TGI (OVCAR-8 ovarian): 33.1 µM
- GI50 (PC-3 prostate): 14.7 µM
- TGI (PC-3 prostate): 30.4 µM
- GI50 (RPMI-8226 leukemia): 16.9 µM
- TGI (RPMI-8226 leukemia): 46.6 µM
- GI50 (RXF 393 renal): 2.29 µM
- TGI (RXF 393 renal): 6.12 µM
- GI50 (SF-268 CNS): 3.95 µM
- TGI (SF-268 CNS): 18.5 µM
- GI50 (SF-295 CNS): 19.5 µM
- TGI (SF-295 CNS): 34.4 µM
- GI50 (SF-539 CNS): 13.2 µM
- TGI (SF-539 CNS): 26 µM
- GI50 (SK-MEL-2 melanoma): 15.6 µM
- TGI (SK-MEL-2 melanoma): 30.5 µM
- GI50 (SK-MEL-28 melanoma): 12.2 µM
- TGI (SK-MEL-28 melanoma): 24.5 µM
- GI50 (SK-MEL-5 melanoma): 18 µM
- TGI (SK-MEL-5 melanoma): 33.3 µM
- GI50 (SK-OV-3 ovarian): 16.3 µM
- TGI (SK-OV-3 ovarian): 30.1 µM
- GI50 (SN12C renal): 14.9 µM
- TGI (SN12C renal): 28.6 µM
- GI50 (SNB-19 CNS): 16.2 µM
- TGI (SNB-19 CNS): 30.7 µM
- GI50 (SNB-75 CNS): 16 µM
- TGI (SNB-75 CNS): 30 µM
- GI50 (SR leukemia): 15.7 µM
- TGI (SR leukemia): 54.7 µM
- GI50 (SW-620 colon): 2.48 µM
- TGI (SW-620 colon): 6.47 µM
- GI50 (T-47D breast): 4.1 µM
- TGI (T-47D breast): 19.7 µM
- GI50 (TK-10 renal): 21.5 µM
- TGI (TK-10 renal): 36.3 µM
- GI50 (U251 CNS): 13.9 µM
- TGI (U251 CNS): 27.5 µM
- GI50 (UACC-257 melanoma): 14.1 µM
- TGI (UACC-257 melanoma): 28 µM
- GI50 (UACC-62 melanoma): 13.7 µM
- TGI (UACC-62 melanoma): 27.2 µM
- GI50 (UO-31 renal): 13.3 µM
- TGI (UO-31 renal): 26.1 µM
